Values quoted from earlier work, collected in patent US8680143B2, “Orally active curcuminoid compounds” (Laila Pharmaceuticals Pvt. Ltd., priority 2008, dated 2014).

oral bis-O-demethylcurcumin that enters the plasma: less than 1%
SMILES: O=C(C=Cc1ccc(O)c(O)c1)CC(=O)C=Cc1ccc(O)c(O)c1 [Bis-O-demethylcurcumin, 1,7-bis(3,4-dihydroxyphenyl)-1,6-heptadiene-3,5-dione]
